Measurements published in the supplement of paper PMC10307832.

Key:
Test in all cases: relative viability (nuclei count vs DMSO), 5 days (fraction); higher = more cells survive
[1] = compound: Cc1cnc(Nc2ccc(OCCN3CCCC3)cc2)nc1Nc1cccc(S(=O)(=O)NC(C)(C)C)c1 [Fedratinib] + Nc1ncn([C@H]2C[C@H](O)[C@@H](CO)O2)c(=O)n1 [Decitabine] (partner 2 µM)
In short: (§1)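 For relative viability, nuclei counts in treated wells were divided by those in vehicle wells. Lung cancer cell lines had been pin-tool dosed in 1536-well plates the day after seeding and cultured for 5 days, then fixed and stained in one step (final 0.05% Triton X-100, 1% formaldehyde, 1 ug/ml Hoechst) and imaged at 4×. Doses were one drug alone or a fixed anchor-drug dose plus five library-drug doses (not always all listed) in √10 steps, and values are duplicate-plate medians.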

[2] = compound: Cc1cnc(Nc2ccc(OCCN3CCCC3)cc2)nc1Nc1cccc(S(=O)(=O)NC(C)(C)C)c1 [Fedratinib] + N=C(N)NC(=N)NCCc1ccccc1 [Phenformin] (partner 250 µM)
In short: as §1

[3] = compound: COC1=CC=C(C=C1)COC2=C(C=C(C=C2)CC3=CN=C(N=C3N)N)OC [GW-2580] + CC(=O)Nc1cccc(-n2c(=O)n(C3CC3)c(=O)c3c(Nc4ccc(I)cc4F)n(C)c(=O)c(C)c32)c1 [Trametinib] (partner 0.02 µM)
In short: as §1

[4] = compound: Cc1cnc(Nc2ccc(OCCN3CCCC3)cc2)nc1Nc1cccc(S(=O)(=O)NC(C)(C)C)c1 [Fedratinib] + O=C(CCCCCCC(=O)Nc1ccccc1)NO [Vorinostat] (partner 1 µM)
In short: as §1

[5] = compound: COC1=CC=C(C=C1)COC2=C(C=C(C=C2)CC3=CN=C(N=C3N)N)OC [GW-2580] + C[C@@H](Oc1cc(-c2cnn(C3CCNCC3)c2)cnc1N)c1c(Cl)ccc(F)c1Cl [Crizotinib] (partner 1 µM)
In short: as §1

[6] = compound: Cc1cnc(Nc2ccc(OCCN3CCCC3)cc2)nc1Nc1cccc(S(=O)(=O)NC(C)(C)C)c1 [Fedratinib] + CC(C)C[C@H](NC(=O)[C@H](Cc1ccccc1)NC(=O)c1cnccn1)B(O)O [Bortezomib] (partner 0.002 µM)
In short: as §1

UMC-11
relative viability ([1]; first compound 0.1 µM): 0.61
relative viability ([1]; first compound 0.3162 µM): 0.603
relative viability ([1]; first compound 1 µM): 0.551
relative viability ([2]; first compound 0.1 µM): 0.338
relative viability ([2]; first compound 0.3162 µM): 0.272
relative viability ([2]; first compound 1 µM): 0.359
relative viability ([3]; first compound 0.08 µM): 0.826
relative viability ([3]; first compound 0.8 µM): 0.866
relative viability ([3]; first compound 2.53 µM): 0.574
relative viability ([3]; first compound 8 µM): 0.817
relative viability ([4]; first compound 0.1 µM): 0.377
relative viability ([4]; first compound 0.3162 µM): 0.357
relative viability ([4]; first compound 1 µM): 0.241
relative viability ([5]; first compound 0.08 µM): 0.599
relative viability ([5]; first compound 0.8 µM): 0.614
relative viability ([5]; first compound 2.53 µM): 0.585
relative viability ([5]; first compound 8 µM): 0.601
relative viability ([6]; first compound 0.1 µM): 0.603
relative viability ([6]; first compound 0.3162 µM): 0.758
relative viability ([6]; first compound 1 µM): 0.396
